melting point [°C] | SMILES
> 300 | CS(=O)(=O)c1ccc(-c2cnn3c(O)ncnc23)cc1
161 | COc1ccc(S(=O)(=O)C(C)(Cc2ccc(-c3ccccc3)cc2)C(=O)O)cc1 (stereo not drawn)
142 to 145 | O=C(c1ccccc1)c1ccc2nc(CS(=O)c3ccccn3)[nH]c2c1 (stereo not drawn)
179 | CC(C)C[C@H](NC(=O)c1cccc(Cl)c1)C(=O)N[C@@H](C(C)C)[C@@H](O)c1c(-c2ccccc2)c1=O
234 to 235 | COc1cc(C(=O)Nc2nn(-c3ccccc3)cc2C=O)ccc1OCc1nc(-c2ccccc2)oc1C
184 | O=C1c2ccccc2-c2c1c1ccccc1c(=O)n2CCNCCO
170 to 172 | O=C(c1ccc(-c2ccccn2)cc1)N1Cc2cccn2Cc2ccccc21
135 to 136 | O=S1(=O)c2ccccc2NC(CO)c2cccn21 (stereo not drawn)
280 | CCOCC(=O)Nc1nc[nH]c1-c1n[nH]c(-c2ccc(-c3ccccc3)cc2)n1
126 to 127 | COC(=O)C(C)(C)C(Cc1ccc(OC)cc1)NS(=O)(=O)c1ccc(C)cc1 (stereo not drawn)
93 to 96 | O=S(=O)(c1ccc(F)cc1)c1cncc(OC2SCC(O)C(O)C2O)c1 (stereo not drawn)
220 to 221 | CCOc1cc2cc(CO)cc(-c3ccnc(-n4nc(C)c5ccccc5c4=O)c3)c2cc1OCC
> 250 | NCC1Cc2cc(-c3ccccc3)cc(-c3ccc(F)cc3)c2O1 (stereo not drawn)
165 | O=C1CCC(c2ccccc2)(c2ccccc2)C2CN(C(Cc3ccccc3)=NCc3ccccc3)CC12 (stereo not drawn)
214 to 215 | Cn1cc(C2=C(c3cn4c5c(cccc35)CCC4CCO)C(=O)NC2=O)c2ccccc21 (stereo not drawn)
128 to 130 | COC(=O)c1c(C)nc(-c2ccccc2)nc1-c1cccc([N+](=O)[O-])c1

melting point [°C] | SMILES
60 to 65 | CN(C)CCCNC(=O)c1ccccc1-c1nnc(CSCCOc2ccccc2)o1
204 to 206 | CC(=O)OCc1c(-c2ccccc2)oc2c(CO)cccc2c1=O
199 to 200 | NS(=O)(=O)c1cc2ccccc2n1S(=O)(=O)c1ccccc1
300 | O=c1c2c(-c3ccc(F)cc3)n[nH]c2c2cccnc2n1-c1ccccc1
98 to 101 | O=C(O)CCc1cc(OCc2ccccc2)nn1Cc1ccc(Cl)cc1Cl
208 to 211 | O=C(O)Cc1cccc2c(=O)cc(-c3cccc(F)c3)oc12
103 to 106 | O=C1OC2(CC(c3ccccc3)=NO2)c2ccccc21 (stereo not drawn)
247 to 249 | CNC(=O)c1cc2c(nc(C)n2C)c(O)c1CC[C@@H](O)c1ccccc1
217 to 220 | CC1(C)C(=NO)C(c2ccccc2)=C1c1ccc(S(C)(=O)=O)cc1
92 to 93 | CCOC(=O)c1cc2c(C)cccc2n1CCNS(=O)(=O)c1ccc(C)cc1
198 to 200 | CC(C)(C)c1cc(C(=O)Nc2ccccc2NC(=O)NCC(c2ccccc2)c2ccccc2)cc(C(C)(C)C)c1O
147 to 153 | COc1cn(-c2cccc(-c3cccnc3)c2F)nc(-c2ccnn2-c2ccccc2)c1=O
150 to 152 | COC(=O)COc1nc(N)nc(-c2ccccc2)c1-c1ccc(=O)n(C(C)C)n1
234 | N[C@@H](Cc1ccccc1)c1nc2c(C(F)(F)F)cccc2c(O)c1C(=O)Nc1nccs1
242 to 245 | Cc1ccc(S(=O)(=O)Nc2nc(C)c(C(=O)NCc3ccccc3)s2)cc1
122 to 124 | CCS(=O)(=O)N(C)C1CCCOc2ccccc21 (stereo not drawn)

The remaining lines, values behind:

SMILES | melting point [°C]
COc1ccc2c(-c3ccccn3)noc2c1Cl | 164 to 166
COC(=O)C1=C(C(OC)OC)NC(C)=C(P2(=O)OCCCO2)C1c1ccccc1[N+](=O)[O-] (stereo not drawn) | 174 to 176
O=c1[nH]c2cc(Sc3cccc4cnccc34)c([N+](=O)[O-])cc2[nH]1 | > 270
CN(CCNC(=O)NCCCOc1cccc(CN2CCCCC2)c1)CCC(c1ccc(Cl)cc1)c1ccccn1 (stereo not drawn) | 99 to 105
Nc1ccc(CCC(=O)NC23CC4CC(CC(C4)C2)C3)cc1N | 151 to 152
CC(=O)Nc1ccc(C2=NNC(=O)Cc3cc4c(cc32)OCO4)cc1 | 177 to 180
CCCOc1cc(Cl)ccc1-c1nc2ncn(C)c(=S)n2n1 | 160 to 162
CCn1nc(C)c2c1C(=O)NCC(c1ccccc1O)=N2 | 220
COCCOC(=O)N1c2cc(Cl)ccc2NC(=O)[C@@H]1C | 93 to 94
CNC(=O)NNC(=S)N1N=C(c2ccc([N+](=O)[O-])cc2)c2cc3c(cc2CC1C)OCO3 (stereo not drawn) | 200
CC(C)(C)c1ccc(NC(=O)NCc2ccc(-n3c(-c4cccnc4N)nc4cccnc43)cc2)cc1 | 210 to 212
CN(C)C=C(C#N)C(=O)c1ccc(C(C)(CN)C(=O)OC(C)(C)C)cc1 (stereo not drawn) | 160 to 162
CCCCCCCCCCCCCCOCC(C)(O)CNCCO (stereo not drawn) | 49.1 to 50.2
CSc1nsc(NC(=O)Oc2ccccc2)c1C#N | 244 to 245
CCn1cc(C(=O)O)c(=O)c2cc(F)c(N3CCSCC3)nc21 | 241 to 243
CCOc1ccc(N)cc1-c1nc2cccnc2c(=O)[nH]1 | 208 to 210
CCc1nn(-c2ccc(C(=N)N)cc2)c(=O)n1-c1ccc(CCC(=O)OC(C)C)cc1 | > 250
Clc1cc2c(cc1Cn1c(C3OCCO3)nc(Br)c1Br)OCO2 | 188
Cc1cc(C)cc(NC(=O)CN2CCN(c3ncccc3C#N)CC2)c1 | 139 to 140
COC(=O)c1cccc(-c2ccncn2)c1 | 69 to 71
CN1C(=O)N(c2cc(Cl)cc(Cl)c2)C(=O)[C@]12CN(c1ccc(Cl)nn1)C[C@H]2c1ccc(C#N)cc1 (relative stereo) | 125
O=c1[nH]c2ccccc2c(=O)n1CCCCCn1ccnc1 | 160 to 162

SMILES | melting point [°C]
CCCCOc1ccc2cc(C(C)C(=O)O)ccc2c1 (stereo not drawn) | 125 to 127
NC(=O)c1sccc1S | 116 to 120
CC(C)SC1CCC(=O)N1 (stereo not drawn) | 77 to 79
O=[N+]([O-])c1cc(Cl)c(Cl)c(Cl)c1Cl | 41 to 44
O=C(/C=C/c1ccccc1Sc1ccc(Cl)cc1Cl)NCCCCO | 68 to 71
CCN1C(=O)CSC1=NOC(=O)NCCCl | 99 to 102
COc1ccc(CN2CCN(c3nc(C)c(C(N)=O)s3)C2=O)cc1F | 182 to 184
CC(C)NC(=O)C(Cc1ccccc1)NC(=O)Nc1n[nH]c(=S)s1 (stereo not drawn) | 206 to 211
Cc1c(F)c(N2CCN(C=O)C(C)C2)cc2c1c(=O)c(C=O)cn2C1CC1 (stereo not drawn) | 258 to 260
COC(=O)C1=C(C)NC(C)=C(C(=O)OC)C1c1cccc(Nc2c(NCCCN3CCN(C4CCCCC4)CC3)c(=O)c2=O)c1 | 210 to 212
Cc1ccc(CSCCCCCOc2ccc(C3=C(c4ccccc4)CCCc4cc(O)ccc43)cc2)cc1 | 165 to 169
NC(=O)c1ccc2c(c1)C(=C(Cl)Cl)OC(=C(Cl)Cl)O2 | 217 to 218
N#Cc1cc(-c2nc3cncnc3[nH]2)ccc1Oc1ccc(F)cc1 | > 250
Cc1ccc(N)cc1Nc1nccc(-c2cncc(Br)c2)n1 | 130
CCOC(=O)c1nc2scc(CNC(=O)c3ccc(C(=O)OC)cc3)c2c(=O)[nH]1 | 236
CC(C)(C)OC(=O)N1CCC2(CC1)CC(c1ncccc1Cl)=NO2 | 97 to 102
COc1cc2c(cc1F)CCN=C2C1(c2ccccc2Cl)CC1 | 172 to 176
CC(C)(C)NCC(O)COc1ccc(-c2nc(C#N)c[nH]2)cc1 (stereo not drawn) | 174 to 177
CCCCCCCCCCCCCCN=C=O | 100 to 104
O=C(O)c1ccc(-c2nnc(-c3ccc(C(F)(F)F)cc3)o2)c([N+](=O)[O-])c1 | 254 to 255
COc1cc(Nc2c(C#N)cnc3cc(OCC4CCN(C)CC4)ccc23)c(Cl)cc1Cl | 191 to 193
CCCNC1Cc2ccc(C3=NNC(=O)CC3)cc2C1 (stereo not drawn) | 137 to 138

SMILES | melting point [°C]
COC(=O)c1ccccc1NC(=O)CC(C)=O | 79 to 80
COC(=O)c1cc2c(cn1)[nH]c1ccc(Oc3ccc([N+](=O)[O-])cn3)cc12 | 150 to 155
CCc1c(C#N)oc2ccc(Br)cc12 | 68 to 69
COc1ccc2c(c1)-c1c([nH]c3c1-c1cc(OC)ccc1CC3)CC2 | 206
Nc1cccnc1-c1ccc2[nH]nc(Nc3nccs3)c2c1 | 282 to 283
CN1CCN(c2ccc(-c3cnc4c(c3)C(O)CCN4)cn2)CC1 (stereo not drawn) | 124 to 128
CCCCCCCCCCCCCCOc1ccc(C(=O)Oc2ccc(-c3ncc(C(=O)O[C@@H](C)CCCCCC)cn3)cc2)cc1 | 85.4
O=c1nc(NCc2ccc(Cl)cc2)n2c3c1cnn3C(c1cccc(C(F)(F)F)c1)=CC2 | 281 to 282
CCOC(=O)c1ncc2[nH]c3ccc(C4=CC(=O)CCC4)cc3c2c1C | 245 to 248
O=C(Nc1ccc2oc(=O)[nH]c2c1)C(=O)N1CCC(Cc2ccc(F)cc2)CC1 | 226 to 231
O=C1Nc2c(F)cc(F)cc2C1=O | 188 to 194
CC(C)(C)c1cc(-c2csc(C3(N4CCOCC4)CCOCC3)n2)cc(C(C)(C)C)c1O | 172 to 174
COC(=O)C1CCC2C3CCC4CC(O)C=CC4(C)C3C(=O)CC12C (stereo not drawn) | 172 to 175
NC(=O)N(O)Cc1cccc(OCc2coc(-c3ccc(F)cc3)n2)c1 | 89 to 91
COc1cc2c(c3c1OC(C)(C)C3)C(c1cccc(NC(=O)NCCCl)c1)=NC(C)(C)C2 | 147 to 150
CC(=O)c1ccc(C(C)ON2C(C)(C)CCCC2(C)C)cc1 (stereo not drawn) | 61.5 to 63
CC(C)=CCn1c(N2CCC(N)C2)nc2c1c(=O)n(C)c(=O)n2C (stereo not drawn) | 119
O=CCC1Cc2cc(F)c(F)cc2C1=O (racemic) | 78 to 81
NCCNc1cc(-n2cccn2)nc(-c2ccco2)n1 | 104 to 105
COc1c(OC(C)=O)c(C)c(CCCC(=O)O)c(OC(C)=O)c1OC | 125 to 127
O=Cc1cc(Cl)cc2c1OC(C(F)(F)F)C(C(=O)O)=C2 (stereo not drawn) | 243 to 252
COC(=O)c1c(-c2ccc(Cl)cc2)ccnc1Sc1nc(OC)cc(OC)n1 | 138 to 142

From a melting point compilation (Tetko et al.; mined from patent text by program, amines drawn as free bases though some values may be those of a salt)
